From patent US8574831B2, “Mutational profiles in HIV-1 reverse transcriptase correlated with phenotypic drug resistance” (Virco N.V., priority 2000, dated 2013)

Test system: HIV with mutations in the HIV protease sequence
Assay: Phenotypic fold resistance to protease inhibitors, protease mutations 84A/84L/84C/54M/54L/54V in a background (Examples 8-13)
Format: cell-based, HIV-1
In short: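 Fold-resistance equals chimeric-virus IC50 divided by IC50 of a parallel wild-type reference HIV-1 strain. Chimeras come from PCR-amplified PR/RT genes recombined into PR/RT-deleted HXB2 proviral DNA inside CD4+ T cells, then cultured with graded drug concentrations.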

## CC(C)c1nc(CN(C)C(=O)N[C@H](C(=O)N[C@@H](Cc2ccccc2)C[C@H](O)[C@H](Cc2ccccc2)NC(=O)OCc2cncs2)C(C)C)cs1 [Ritonavir, ritonavir]
Table 12, V055199, genotype 10I + 33F + 54M + 90M
  Fold change in IC50: 18.4 fold
Table 13, V19263, genotype 77I
  Fold change in IC50: 0.4 fold
Table 13, V20160, genotype WT
  Fold change in IC50: 0.6 fold
Table 13, V021667, genotype 10I
  Fold change in IC50: 1.2 fold
Table 13, V030496, genotype 10I + 77I
  Fold change in IC50: 0.5 fold
Table 13, V048868, genotype 10I + 54L + 71V + 77I + 90M
  Fold change in IC50: 9.7 fold
Table 13, V048874, genotype 10I + 33F + 54L + 71V + 77I + 90M
  Fold change in IC50: 21.3 fold
Table 13, V048875, genotype 10I + 33F + 54L + 71V + 77I + 90M
  Fold change in IC50: 25.1 fold
Table 13, V048877, genotype 10I + 33F + 77I + 90M
  Fold change in IC50: 20.5 fold
Table 13, V048880, genotype 10I + 33F + 77I + 90M
  Fold change in IC50: 3.6 fold
Table 13, V052940, genotype 71V
  Fold change in IC50: 0.4 fold
Table 13, V052942, genotype 10I + 71V
  Fold change in IC50: 0.6 fold
Table 13, V052943, genotype 10I + 90M
  Fold change in IC50: 1.8 fold
Table 13, V052944, genotype 10I + 90M
  Fold change in IC50: 1.5 fold
Table 13, V052945, genotype 77I + 90M
  Fold change in IC50: 1.9 fold
Table 13, V052946, genotype 71V + 90M
  Fold change in IC50: 2.0 fold
Table 13, V052947, genotype 10I + 77I + 90M
  Fold change in IC50: 6.9 fold
Table 13, V052948, genotype 10I + 71V + 90M
  Fold change in IC50: 10.5 fold
Table 13, V052949, genotype 10I + 71V + 77I + 90M
  Fold change in IC50: 2.3 fold
Table 13, V052950, genotype 33F
  Fold change in IC50: 1.5 fold
Table 13, V052951, genotype 33F + 77I
  Fold change in IC50: 0.3 fold
Table 13, V052953, genotype 10I + 33F + 77I
  Fold change in IC50: 1.1 fold
Table 13, V052954, genotype 33F + 77I + 90M
  Fold change in IC50: 2.2 fold
Table 13, V052955, genotype 33F + 71V + 90M
  Fold change in IC50: 77.9 fold
Table 13, V052968, genotype 10L/I + 33F/L + 54L + 77I
  Fold change in IC50: 4.7 fold
Table 13, V052969, genotype 10I + 33F + 54L + 90M
  Fold change in IC50: 4.8 fold
Table 13, V052970, genotype 54L
  Fold change in IC50: 2.0 fold
Table 13, V052971, genotype 10I + 54L
  Fold change in IC50: 1.5 fold
Table 13, V052972, genotype 54L + 77I
  Fold change in IC50: 2.4 fold
Table 13, V052973, genotype 10I + 54L + 77I
  Fold change in IC50: 1.4 fold
Table 13, V052974, genotype 10I + 54L + 90M
  Fold change in IC50: 3.6 fold
Table 13, V052975, genotype 10I + 54L + 71V + 90M
  Fold change in IC50: 30.5 fold
Table 13, V052976, genotype 10I + 54L + 71V + 77I + 90M
  Fold change in IC50: 6.5 fold
Table 13, V053832, genotype 10I + 33F
  Fold change in IC50: 2.9 fold
Table 13, V053854, genotype 54L + 71V
  Fold change in IC50: 2.3 fold
Virco ID 214846, genotype 10I + 33F + 54V + 71V + 77I + 90M, vs mean IC50 of wild type laboratory HIV strain
  Fold change in IC50: 57.6 fold
Virco ID V021667, genotype 10I, vs mean IC50 of wild type laboratory HIV strain
  Fold change in IC50: 1.2 fold
Virco ID V030496, genotype 10I + 77I, vs mean IC50 of wild type laboratory HIV strain
  Fold change in IC50: 0.5 fold
Virco ID V048876, genotype 33F + 54V + 77I + 90M, vs mean IC50 of wild type laboratory HIV strain
  Fold change in IC50: 5.6 fold
Virco ID V048877, genotype 10I + 33F + 77I + 90M, vs mean IC50 of wild type laboratory HIV strain
  Fold change in IC50: 20.5 fold
Virco ID V048880, genotype 10I + 33F + 77I + 90M, vs mean IC50 of wild type laboratory HIV strain
  Fold change in IC50: 3.6 fold
Virco ID V052940, genotype 71V, vs mean IC50 of wild type laboratory HIV strain
  Fold change in IC50: 0.4 fold
Virco ID V052942, genotype 10I + 71V, vs mean IC50 of wild type laboratory HIV strain
  Fold change in IC50: 0.6 fold
Virco ID V052943, genotype 10I + 90M, vs mean IC50 of wild type laboratory HIV strain
  Fold change in IC50: 1.8 fold
Virco ID V052944, genotype 10I + 90M, vs mean IC50 of wild type laboratory HIV strain
  Fold change in IC50: 1.5 fold
Virco ID V052946, genotype 71V + 90M, vs mean IC50 of wild type laboratory HIV strain
  Fold change in IC50: 2.0 fold
Virco ID V052947, genotype 10I + 77I + 90M, vs mean IC50 of wild type laboratory HIV strain
  Fold change in IC50: 6.9 fold
Virco ID V052948, genotype 10I + 71V + 90M, vs mean IC50 of wild type laboratory HIV strain
  Fold change in IC50: 10.5 fold
Virco ID V052949, genotype 10I + 71V + 77I + 90M, vs mean IC50 of wild type laboratory HIV strain
  Fold change in IC50: 2.3 fold
Virco ID V052950, genotype 33F, vs mean IC50 of wild type laboratory HIV strain
  Fold change in IC50: 1.5 fold
Virco ID V052951, genotype 33F + 77I, vs mean IC50 of wild type laboratory HIV strain
  Fold change in IC50: 0.3 fold
Virco ID V052953, genotype 10I + 33F + 77I, vs mean IC50 of wild type laboratory HIV strain
  Fold change in IC50: 1.1 fold
Virco ID V052954, genotype 33F + 77I + 90M, vs mean IC50 of wild type laboratory HIV strain
  Fold change in IC50: 2.2 fold
Virco ID V052955, genotype 33F + 71V + 90M, vs mean IC50 of wild type laboratory HIV strain
  Fold change in IC50: 77.9 fold
Virco ID V052957, genotype 10I + 33F + 54V + 90M, vs mean IC50 of wild type laboratory HIV strain
  Fold change in IC50: 13.9 fold
Virco ID V052958, genotype 10I + 33F + 54V + 77I + 90M, vs mean IC50 of wild type laboratory HIV strain
  Fold change in IC50: 16.6 fold
Virco ID V052959, genotype 10I + 33F + 54V + 77I + 90M, vs mean IC50 of wild type laboratory HIV strain
  Fold change in IC50: 28.5 fold
Virco ID V052960, genotype 10I + 33F + 54V + 71V + 90M, vs mean IC50 of wild type laboratory HIV strain
  Fold change in IC50: 70.9 fold
Virco ID V052961, genotype 54V, vs mean IC50 of wild type laboratory HIV strain
  Fold change in IC50: 1.2 fold
Virco ID V052962, genotype 10I + 54V, vs mean IC50 of wild type laboratory HIV strain
  Fold change in IC50: 1.0 fold
Virco ID V052963, genotype 54V + 77I + 90M, vs mean IC50 of wild type laboratory HIV strain
  Fold change in IC50: 2.0 fold
Virco ID V052964, genotype 54V + 71V + 90M, vs mean IC50 of wild type laboratory HIV strain
  Fold change in IC50: 7.1 fold
Virco ID V052965, genotype 10I + 54V + 77I + 90M, vs mean IC50 of wild type laboratory HIV strain
  Fold change in IC50: 12.5 fold
Virco ID V052966, genotype 10I + 54V + 71V + 90M, vs mean IC50 of wild type laboratory HIV strain
  Fold change in IC50: 44.5 fold
Virco ID V052967, genotype 10I + 54V + 71V + 77I + 90M, vs mean IC50 of wild type laboratory HIV strain
  Fold change in IC50: 0.7 fold
Virco ID V053358, genotype 33F + 54V + 77I + 90M, vs mean IC50 of wild type laboratory HIV strain
  Fold change in IC50: 4.9 fold
Virco ID V053831, genotype 33F + 54V, vs mean IC50 of wild type laboratory HIV strain
  Fold change in IC50: 129.7 fold
Virco ID V053832, genotype 10I + 33F, vs mean IC50 of wild type laboratory HIV strain
  Fold change in IC50: 2.9 fold
